Laboratory results taken from patent EP2208725A1, “Novel specific inhibitors of ubiquitin specific protease 7, the pharmaceutical compositions thereof and their therapeutic applications” (Hybrigenics S.A., priority 2009, dated 2010).

Tests used:
human USP7 = target: T1, human USP7 (Homo sapiens, UniProt Q93009); test: USP7 activity assay (Ub-AMC); assay type: biochemical; conditions: 300 nM Ub-AMC, 100 pM enzyme; compounds tested from 200 µM to 91 nM; unit inferred; read-out: Inhibition of cysteine protease activities: USP7
T1 construct: Full-length wild-type human USP7; His (N); made in house; host or cells: Spodoptera frugiperda Sf9 (baculovirus, pFastBac-HT)
From the text: The cDNA encoding USP7 was obtained by PCR amplification from placenta mRNA. USP7 cDNA was subcloned by PCR into a baculovirus expression vector (pFastBac-HT; Invitrogen). Full-length wild-type human USP7 and its catalytic mutant (cysteine 223 replaced by alanine, C223A) were produced as N-terminally His-tagged fusions in Spodoptera frugiperda cells (Sf9, Invitrogen), using the Bac-to-Bac Baculovirus system from Invitrogen according to the manufacturer's instructions. pFastBac-HT-B-USP7 was used to transform DH10bac cells (Invitrogen), and blue/white selection was carried out on X-gal/IPTG agar plates. Bacmid DNA was prepared by an alkaline lysis procedure. The integrity of the bacmid minipreps and their orientation were checked by PCR, using generic and specific primers. Sf9 cells were cultured in InsectXpress medium (Cambrex) at 27°C and transfected with the corresponding bacmid, using GeneShuttle 40 (Q-BIOgen). Viruses were recovered in the supernatant 72 h after transfection. Viruses were amplified by infecting Sf9 cells in 50 ml InsectXpress medium in a 150 cm^2 cell culture flask with 500 µl of the supernatant from transfected Sf9 cells. Following the second round of amplification, Sf9 cells were recovered by rapid SDS lysis, boiled for 5 min at 100°C, sonicated briefly and centrifuged for 20 min at 14,000 g. Expression levels in infected Sf9 cells were compared with those in uninfected cells. […] Beads were extensively washed (50 mM sodium phosphate buffer pH 7.0, 500 mM NaCl, 10 mM Imidazole, 0.5% Triton X-100 and 10% glycerol) and bound proteins were eluted in wash buffer supplemented with 250 mM Imidazole (Sigma). Eluted fractions were resolved on 4-12% NuPAGE gels (Novex, Invitrogen). Fractions containing high concentrations of purified proteins (purity > 95%) were dialyzed (20 mM Tris HCl pH 7.6, 200 mM NaCl, 1 mM DTT, 1 mM EDTA and 10% glycerol) were aliquoted and snap frozen in liquid nitrogen before storage at -80°C.
USP7 was diluted in USP buffer (50 mM Tris HCl; 0.5 mM EDTA; 5 mM DTT; 0.01 % Triton X-100; Bovine Serum Albumin 0.05 mg.ml^-1 pH7.6). Compounds stocks (100 mM) were stored at -20°C in DMSO. Compounds were tested at different concentrations: from 200 µM to 91 nM.
Reactions were performed as duplicates in Black LJL 96 well plates (HE microplates; Molecular Devices; 20 µl final reaction volume). The substrate concentration for USP7 was 300 nM Ub-AMC (Chem. Biol., 2003, 10, p. 837-846) (Boston Biochem). The concentrations of the enzyme (USP7) in specificity assays was 100 pM. The concentrations were determined in order to perform specificity assays under initial velocities at fixed substrate concentration. Compounds were pre-incubated with enzymes for 30 minutes at 25°C. Reactions were initiated by addition of substrate to the plates containing the enzymes (+/- compounds) diluted in assay buffer. Reactions were incubated for 60 minutes at 37°C. Reactions were stopped by adding acetic acid (100 mM final). Readings were performed on a Pherastar Fluorescent Reader (BMG). λ […]. Data (mean values +/- standard deviation) were analyzed as % of control (no compound) and plotted as percentage versus the Log of the compound concentration using GraphPad (Prism). Data were fitted to a sigmoidal model (variable slope).

USP5 = target: T2, USP5 (Homo sapiens, UniProt P45974); test: USP5 activity assay (Ub-AMC); assay type: biochemical; conditions: 300 nM Ub-AMC, 300 pM enzyme; compounds tested from 200 µM to 91 nM; unit inferred; read-out: Inhibition of cysteine protease activities: USP 5
T2 sequence (P45974 1-858): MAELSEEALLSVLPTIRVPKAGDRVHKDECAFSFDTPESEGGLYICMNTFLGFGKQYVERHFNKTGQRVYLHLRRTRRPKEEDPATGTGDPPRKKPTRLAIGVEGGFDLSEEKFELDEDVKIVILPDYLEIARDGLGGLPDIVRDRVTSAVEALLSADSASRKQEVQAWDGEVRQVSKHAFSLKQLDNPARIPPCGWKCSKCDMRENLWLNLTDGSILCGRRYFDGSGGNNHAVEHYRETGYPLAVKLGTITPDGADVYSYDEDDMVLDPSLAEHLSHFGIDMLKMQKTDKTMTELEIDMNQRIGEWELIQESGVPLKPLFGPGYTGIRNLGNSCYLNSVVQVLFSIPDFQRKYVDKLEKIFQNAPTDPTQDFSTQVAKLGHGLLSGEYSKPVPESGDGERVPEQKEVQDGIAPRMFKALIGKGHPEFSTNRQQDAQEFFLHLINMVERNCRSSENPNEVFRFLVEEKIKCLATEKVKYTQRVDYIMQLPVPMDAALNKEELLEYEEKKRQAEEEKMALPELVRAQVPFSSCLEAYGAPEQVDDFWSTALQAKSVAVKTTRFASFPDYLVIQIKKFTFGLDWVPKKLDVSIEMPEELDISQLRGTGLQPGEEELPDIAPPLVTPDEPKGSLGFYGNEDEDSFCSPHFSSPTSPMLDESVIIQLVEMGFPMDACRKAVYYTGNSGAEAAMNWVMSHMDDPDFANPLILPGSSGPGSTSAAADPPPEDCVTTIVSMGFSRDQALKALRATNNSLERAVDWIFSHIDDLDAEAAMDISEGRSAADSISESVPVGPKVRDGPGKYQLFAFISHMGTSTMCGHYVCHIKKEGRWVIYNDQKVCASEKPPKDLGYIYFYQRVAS
Procedure: USP5 was diluted in USP buffer (50 mM Tris HCl; 0.5 mM EDTA; 5 mM DTT; 0.01% Triton X-100; Bovine Serum Albumin 0.05 mg.ml^-1 pH 7.6). Compounds stocks (100 mM) were stored at -20°C in DMSO. Compounds were tested at different concentrations: from 200 µM to 91 nM. Reactions were performed as duplicates in Black LJL 96 well plates (HE microplates; Molecular Devices; 20 µl final reaction volume). The substrate concentration for USP5 was 300 nM Ub-AMC (Boston Biochem). The concentrations of the enzyme (USP5) in specificity assays was 300 pM. The concentrations were determined in order to perform specificity assays under initial velocities at fixed substrate concentration. Compounds were pre-incubated with enzymes for 30 minutes at 25°C. Reactions were initiated by addition of substrate to the plates containing the enzymes (+/- compounds) diluted in assay buffer. Reactions were incubated for 60 minutes at 37°C. Reactions were stopped by adding acetic acid (100 mM final). Readings were performed on a Pherastar Fluorescent Reader (BMG). λ Emission 380 nm; λ Excitation = 460 nm. Data (mean values +/- standard deviation) were analyzed as % of control (no compound) and plotted as percentage versus the Log of the compound concentration using GraphPad (Prism). Data were fitted to a sigmoidal model (variable slope).

T1 sequence (Q93009 whole entry): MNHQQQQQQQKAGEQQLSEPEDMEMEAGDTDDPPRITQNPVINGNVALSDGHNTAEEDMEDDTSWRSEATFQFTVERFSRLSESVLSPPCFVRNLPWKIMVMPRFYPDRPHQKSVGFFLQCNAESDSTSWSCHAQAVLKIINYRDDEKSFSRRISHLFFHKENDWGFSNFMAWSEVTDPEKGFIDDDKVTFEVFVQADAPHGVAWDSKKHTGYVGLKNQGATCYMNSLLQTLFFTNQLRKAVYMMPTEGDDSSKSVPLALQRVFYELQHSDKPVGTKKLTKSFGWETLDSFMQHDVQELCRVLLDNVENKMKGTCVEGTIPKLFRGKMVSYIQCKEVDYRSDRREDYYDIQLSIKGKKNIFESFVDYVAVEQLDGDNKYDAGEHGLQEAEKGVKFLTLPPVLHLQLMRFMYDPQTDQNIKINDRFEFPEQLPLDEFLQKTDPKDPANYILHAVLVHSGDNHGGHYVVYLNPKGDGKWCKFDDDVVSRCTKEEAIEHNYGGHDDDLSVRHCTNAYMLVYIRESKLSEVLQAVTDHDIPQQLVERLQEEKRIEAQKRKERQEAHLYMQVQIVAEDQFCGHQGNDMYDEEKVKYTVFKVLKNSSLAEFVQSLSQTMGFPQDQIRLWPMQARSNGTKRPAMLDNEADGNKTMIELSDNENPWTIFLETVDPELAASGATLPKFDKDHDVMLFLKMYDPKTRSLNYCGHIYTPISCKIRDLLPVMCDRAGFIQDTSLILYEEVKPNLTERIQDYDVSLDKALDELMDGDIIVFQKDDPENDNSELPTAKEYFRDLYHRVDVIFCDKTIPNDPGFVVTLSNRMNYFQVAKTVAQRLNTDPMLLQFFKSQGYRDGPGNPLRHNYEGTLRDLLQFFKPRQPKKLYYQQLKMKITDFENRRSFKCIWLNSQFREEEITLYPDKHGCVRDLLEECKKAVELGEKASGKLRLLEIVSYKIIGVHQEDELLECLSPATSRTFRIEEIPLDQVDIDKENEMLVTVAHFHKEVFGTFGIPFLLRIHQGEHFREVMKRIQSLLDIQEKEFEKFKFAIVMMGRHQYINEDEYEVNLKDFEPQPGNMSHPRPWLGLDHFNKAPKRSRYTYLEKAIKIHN

SMILES | IC50 (human USP7) | IC50 (USP5)
COc1cccc(CCN2C(=O)C(O)=C(C(C)=O)C2c2ccc(Br)cc2)c1 (centres unmarked) [Example 30, 4-acetyl-5-(4-bromo-phenyl)-3-hydroxy-1-[2-(3-methoxyphenyl)-ethyl]-1,5-dihydro-pyrrol-2-one] | 11.1 µM | > 200 µM
CC(=O)C1=C(O)C(=O)N(CCc2ccccc2)C1c1ccc2c(c1)OCO2 (centres unmarked) [Example 37, 4-acetyl-5-benzo[1,3]dioxol-5-yl-3-hydroxy-1-phenethyl-1,5-dihydro-pyrrol-2-one] | 7.03 µM | > 200 µM
CC(=O)C1=C(O)C(=O)N(CCc2ccc(Cl)cc2)C1c1ccc(Cl)cc1 (centres unmarked) [Example 46, 4-Acetyl-5-(4-chlorophenyl)-1-[2-(4-chlorophenyl)-ethyl]-3-hydroxy-1,5-dihydro-pyrrol-2-one] | 4.4 µM | > 200 µM
CCOc1ccc(CCN2C(=O)C(O)=C(C(C)=O)C2c2ccc(Br)cc2)cc1 (centres unmarked) [Example 34, 4-acetyl-5-(4-bromo-phenyl)-3-hydroxy-1-[2-(4-ethoxy-phenyl)-ethyl]-1,5-dihydro-pyrrol-2-one] | 6.6 µM | > 200 µM
COc1ccc(CCN2C(=O)C(O)=C(C(C)=O)C2c2ccc(Br)cc2)cc1 (centres unmarked) [Example 32, 4-acetyl-5-(4-bromo-phenyl)-3-hydroxy-1-[2-(4-methoxyphenyl)-ethyl]-1,5-dihydro-pyrrol-2-one] | 5.28 µM | > 200 µM
CC(=O)C1=C(O)C(=O)N(CCc2ccccc2)C1c1cccnc1Cl (centres unmarked) [Example 42, 4-acetyl-5-(2-chloro-pyridin-3-yl)-3-hydroxy-1-phenethyl-1,5-dihydro-pyrrol-2-one] | 12 µM | > 200 µM
CC(=O)C1=C(O)C(=O)N(CCc2ccccc2)C1c1ccc(Br)c(Br)c1 (centres unmarked) [Example 41, 4-acetyl-5-(3,4-dibromo-phenyl)-3-hydroxy-1-phenethyl-1,5-dihydro-pyrrol-2-one] | 8.98 µM | > 200 µM

Other lines, results leading:

IC50 (human USP7) | IC50 (USP5) | SMILES
1.9 µM | > 200 µM | CC(=O)C1=C(O)C(=O)N(CCc2ccc(Cl)cc2Cl)C1c1ccc(Br)cc1 (centres unmarked) [Example 47, 4-Acetyl-5-(4-bromophenyl)-1-[2-(2,4-dichlorophenyl)-ethyl]-3-hydroxy-1,5-dihydro-pyrrol-2-one]
1.61 µM | > 200 µM | CC(=O)C1=C(O)C(=O)N(CCc2ccc(Cl)c(Cl)c2)C1c1ccc(Br)cc1 (centres unmarked) [Example 28, 4-acetyl-5-(4-bromo-phenyl)-1-[2-(3,4-dichloro-phenyl)-ethyl]-3-hydroxy-1,5-dihydro-pyrrol-2-one]
3.05 µM | > 200 µM | CC(=O)C1=C(O)C(=O)N(CCc2ccc(F)cc2)C1c1ccc(Br)cc1 (centres unmarked) [Example 33, 4-acetyl-5-(4-bromo-phenyl)-3-hydroxy-1-[2-(4-fluorophenyl)-ethyl]-1,5-dihydro-pyrrol-2-one]
2.7 µM | > 200 µM | CC(=O)C1=C(O)C(=O)N(CCc2ccc(Br)cc2)C1c1ccc(Br)cc1 (centres unmarked) [Example 26, 4-acetyl-5-(4-bromo-phenyl)-1-[2-(4-bromo-phenyl)-ethyl]-3-hydroxy-1,5-dihydro-pyrrol-2-one]
3.1 µM | > 200 µM | CC(=O)C1=C(O)C(=O)N(CCc2ccc(Cl)cc2)C1c1ccc(Br)cc1 (centres unmarked) [Example 25, 4-acetyl-5-(4-bromo-phenyl)-1-[2-(4-chloro-phenyl)-ethyl]-3-hydroxy-1,5-dihydro-pyrrol-2-one]
4.2 µM | > 200 µM | CC(=O)C1=C(O)C(=O)N(CCc2ccc(Br)cc2)C1c1ccc(Cl)cc1 (centres unmarked) [Example 45, 4-Acetyl-5-(4-chlorophenyl)-1-[2-(4-bromophenyl)-ethyl]-3-hydroxy-1,5-dihydro-pyrrol-2-one]
